Measured values reported in patent US11208416B2, “Selective inhibitors of protein arginine methytransterase 5 (PRMT5)” (Prelude Therapeutics, Incorporated, priority 2017, dated 2021).

Assays:
[1] = molecular target: PRMT5/MEP50 complex (Homo sapiens (Human), UniProt O14744); assay: Biochemical assay, PRMT5/MEP50 methylation of histone H2A with 3H-SAM; details: histone H2A 5 μM, PRMT5/MEP50 5 nM
Method: Biochemical Assay Protocol
Compounds were solubilized and 3-fold diluted in 100% DMSO. […] Standard reactions were performed in a total volume of […] assay buffer, with histone H2A (5 μM final) as substrate. To this was added the PRMT5/MEP50 complex diluted to provide a final assay concentration of 5 nM and the compounds were allowed to preincubate for 15 to 20 minutes at room temperature. The reaction was initiated by adding S-[3H-methyl]-adenosyl-L-methionine (PerkinElmer) to final concentration of […]. Following a 60 minutes incubation at 30° C., the reaction was stopped by adding 100 μL of 20% TCA. Each reaction was spotted onto filter plate (MultiScreen FB Filter Plate, Millipore), and washed 5 times with PBS buffer, Scintillation fluid was added to the filter plate and read in a scintillation counter. IC50 values were determined by fitting the data to the standard 4 parameters with Hill Slope using GraphPad Prism software.

[2] = system: Symmetric Di-Methyl Arginine (sDMA); assay: Western blot for sDMA marks in Granta cells (enzyme inhibition IC50); type: cell-based; details: Homo sapiens, 72 h; Granta-519 cell line, 3 days
[3] = system: Granta-519 cells; assay: Cell proliferation assay on Granta-519 cells (CCK-8); type: cell-based; details: Homo sapiens, 240 h; Granta-519 cell line, day 10; read-out: Prolif. IC50
Method: Cell Proliferation Assay to Determine IC50 on Granta-519 Cells
Granta-519 cells were maintained in PRMI 1640 (Corning Cellgro, Catalog #: 10-040-CV) medium supplemented with 10% v/v FBS (GE Healthcare, Catalog #: SH30910.03). Compounds were dissolved in DMSO to make 10 mM stocks and stored at −20° C. Nine-point, 3-fold serial dilutions were made with DMSO with top concentration at 1 mM (working stocks).
On day of experiment, compound working stocks were further diluted at 1:50 with fresh medium in 96 well plate, and 10 μL of diluted drugs were added to a new 96 well plate for proliferation assay. Cells growing at exponential phase were spun down at 1500 rpm for 4 min and resuspend in fresh medium to reach a density of 0.5×10^6 cells/ml. 200 ul of cells were added to 96 well plate containing diluted drugs and incubated for 3 days. DMSO was used a vehicle control.
One day 3, 10 μL of Cell Counting Kit-8 (CCK-8, Jojindo, CK04-13) solution was added to a new 96 well plate. […] Plates were incubated in CO2 incubator for 2 hours and OD450 values were measured with a microplate reader (iMark microplate reader, Bio-Rad). […]
Percentage of viable cells, relative to DMSO vehicle control, were calculated and plotted in Graphpad Prism ([Inhibitor] vs. normalized response−Variable slope) to determine proliferation IC50 values on day 10.

[4] = system: sDMA; assay: sDMA levels in tumor samples of Granta-519 mouse xenograft (Western blot); type: in vivo; details: 50 mg/kg orally QD
Method: Granta-519 cells was maintained in DMEM medium supplemented with 10% fetal bovine serum and 2 mM L-Glutamine at 37° C. in an atmosphere of 5% CO2 in air. Cells in exponential growth phase were harvested and 1×10^7 cells in 0.1 mL of PBS with Matrigel (1:1) were injected subcutaneously at the right lower flank region of each mouse for tumor development. The treatments were started when the mean tumor size reaches approximately 300-400 mm^3. […] Example 47 or vehicle (0.5% Na CMC+0.5% Tween80, suspension) were administered orally (QD for Example 47, QD for vehicle) at a dose of 30 mg/kg and 50 mg/kg for 19 and 16 days, respectively. Body weights and tumor size were measured every 3 to 4 days after randomization. Animals were euthanized 12 hours after last dosing, and blood and tumor samples were collected for analysis.
To measure sDMA levels in tumor samples, tumors from each mouse were weighted and homogenized in RIPA buffer supplemented with protease inhibitor (cOmplete™ EDTA-free Protease Inhibitor Cocktail, Roche). Lysate were centrifuged at 14,000 rpm for 30 min at 4° C. to remove debris. Total protein concentrations of lysate were determined by BCA assay (ThermoFisher Scientific, Catalog #: 23225). Equal amount of total proteins from each tumor were separated on SDS-PAGE gel, and sDMA levels were determined by WB as described previously.

Chain of PRMT5/MEP50 complex (O14744 whole entry): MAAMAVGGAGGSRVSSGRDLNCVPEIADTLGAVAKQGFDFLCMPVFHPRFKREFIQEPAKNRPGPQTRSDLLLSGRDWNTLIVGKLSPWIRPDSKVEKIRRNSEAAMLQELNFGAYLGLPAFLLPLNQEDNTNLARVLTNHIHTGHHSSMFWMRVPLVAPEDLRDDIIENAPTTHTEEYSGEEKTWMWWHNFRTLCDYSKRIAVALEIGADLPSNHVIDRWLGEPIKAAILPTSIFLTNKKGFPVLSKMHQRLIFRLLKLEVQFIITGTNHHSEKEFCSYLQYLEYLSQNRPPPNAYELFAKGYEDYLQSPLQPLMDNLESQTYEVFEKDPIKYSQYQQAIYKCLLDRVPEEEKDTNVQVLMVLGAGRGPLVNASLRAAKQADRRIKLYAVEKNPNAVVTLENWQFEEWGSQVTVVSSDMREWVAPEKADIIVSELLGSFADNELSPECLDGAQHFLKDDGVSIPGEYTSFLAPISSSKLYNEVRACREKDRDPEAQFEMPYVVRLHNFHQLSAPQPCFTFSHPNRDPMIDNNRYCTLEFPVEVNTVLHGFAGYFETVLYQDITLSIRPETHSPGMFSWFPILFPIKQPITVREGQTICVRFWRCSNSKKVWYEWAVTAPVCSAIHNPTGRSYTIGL
Chain of PRMT5/MEP50 complex (Q9BQA1 whole entry partner): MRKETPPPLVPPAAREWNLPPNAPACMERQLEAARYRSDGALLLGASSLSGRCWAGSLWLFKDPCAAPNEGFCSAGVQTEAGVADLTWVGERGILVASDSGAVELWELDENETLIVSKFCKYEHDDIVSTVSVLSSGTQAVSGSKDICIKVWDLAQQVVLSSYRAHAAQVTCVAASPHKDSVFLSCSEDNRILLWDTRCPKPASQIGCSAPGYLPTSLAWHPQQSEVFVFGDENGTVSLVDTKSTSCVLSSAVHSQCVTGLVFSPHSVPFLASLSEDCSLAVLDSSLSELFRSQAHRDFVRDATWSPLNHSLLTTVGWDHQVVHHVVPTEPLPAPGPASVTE

| Compound | IC50 [1] [µM] | IC50 [2] [µM] | IC50 [3] [µM] | sDMA level in tumor [4] |
| --- | --- | --- | --- | --- |
| CSC[C@H]1O[C@@H](n2ccc3c(N)ncnc32)[C@H](O)[C@]1(C)O [Example 17, (2S,3S,4R,5R)-5-(4-amino-7H-pyrrolo[2,3-d]pyrimidin-7-yl)-3-methyl-2-((methylthio)methyl)tetrahydrofuran-3,4-diol] | 0.9 | 1 | 200 | – |
| C[C@@]1(O)[C@@H]([C@H](O)c2ccc(Cl)c(Cl)c2)O[C@@H](n2ccc3c(N)ncnc32)[C@@H]1O [Example 47, (2R,3S,4R,5R)-5-(4-amino-7H-pyrrolo[2,3-d]pyrimidin-7-yl)-2-((R)-(3,4-dichlorophenyl)(hydroxy)methyl)-3-methyltetrahydrofuran-3,4-diol] | – | – | – | no detectable sDMA |
| Cc1ncnc2c1ccn2[C@@H]1O[C@H](Cc2ccc(Cl)cc2CO)[C@@](C)(O)[C@H]1O [Example 64, (2R,3S,4R,5R)-2-[[4-chloro-2-(hydroxymethyl)phenyl]methyl]-3-methyl-5-(4-methylpyrrolo[2,3-d]pyrimidin-7-yl)tetrahydrofuran-3,4-diol] | 1.61 | – | – | – |
